Data on twelve molecules can be found in patent publication US9688676B2, “Tyrosine kinase inhibitors” (PRINCIPIA BIOPHARMA INC., priority 2015, dated 2017).

Experiment [1] addresses T1, BTK (Homo sapiens (Human), UniProt Q06187). The experiment can be described thus: Determination of drug-kinase residence time (TR-FRET tracer competition, occupancy after washout). In kind it is binding. The conditions noted are these: 1.5 μM compound, 500 nM BTK; for % occupany at 1 h: 1 h of washout; for % occupany at 6 h: 6 h of washout; for % occupany at 24 h: 24 h of washout. The procedure: The experiment was conducted in a buffer consisting of 50 mM Hepes pH 7.5, 10 mM MgCl2, 0.01% Triton X-100, and 1 mM EGTA.
The mixture was then diluted 5-fold by addition of 40 μL of buffer. […] In order to probe for reversibility of the kinase-compound binding interaction, a competition solution containing both a high affinity fluorescent tracer and an antibody coupled to Europium was prepared. […] The competition solution also contained 80 nM of an Anti-polyhistidine antibody coupled to Europium (Invitrogen Cat. #PV5596) which is designed to bind the polyhistidine purification tag in BTK.
It is to be expected that covalent and slow dissociating inhibitors will block binding of the tracer while rapidly dissociating non-covalent inhibitors will not. […] Data were plotted at percentage of signal obtained in the absence of competitor compound. The background signal was obtained by omission of BTK from the reaction. […] If the compound is a reversible covalent inhibitor, the tracer will bind the target as the compound dissociates from the target.
(In general: In TR-FRET formats the signal depends on donor and acceptor labels being close together.)

The target of experiment [2] is T1, BTK. The experiment is described as follows: BTK enzymatic activity assay (Caliper-based kinase assay). In kind it is biochemical. The conditions noted are these: human recombinant BTK 0.5 nM, ATP 16 μM, 3 h room temperature. The procedure:
A Caliper-based kinase assay (Caliper Life Sciences, Hopkinton, Mass.) was used to measure inhibition of BTK kinase activity of a compound of the present disclosure. […] The reaction was then terminated with EDTA, final concentration 20 mM and the phosphorylated reaction product was quantified on a Caliper Desktop Profiler (Caliper LabChip 3000). […] This value is presented as the IC50.

T1 sequence (Q06187 whole entry): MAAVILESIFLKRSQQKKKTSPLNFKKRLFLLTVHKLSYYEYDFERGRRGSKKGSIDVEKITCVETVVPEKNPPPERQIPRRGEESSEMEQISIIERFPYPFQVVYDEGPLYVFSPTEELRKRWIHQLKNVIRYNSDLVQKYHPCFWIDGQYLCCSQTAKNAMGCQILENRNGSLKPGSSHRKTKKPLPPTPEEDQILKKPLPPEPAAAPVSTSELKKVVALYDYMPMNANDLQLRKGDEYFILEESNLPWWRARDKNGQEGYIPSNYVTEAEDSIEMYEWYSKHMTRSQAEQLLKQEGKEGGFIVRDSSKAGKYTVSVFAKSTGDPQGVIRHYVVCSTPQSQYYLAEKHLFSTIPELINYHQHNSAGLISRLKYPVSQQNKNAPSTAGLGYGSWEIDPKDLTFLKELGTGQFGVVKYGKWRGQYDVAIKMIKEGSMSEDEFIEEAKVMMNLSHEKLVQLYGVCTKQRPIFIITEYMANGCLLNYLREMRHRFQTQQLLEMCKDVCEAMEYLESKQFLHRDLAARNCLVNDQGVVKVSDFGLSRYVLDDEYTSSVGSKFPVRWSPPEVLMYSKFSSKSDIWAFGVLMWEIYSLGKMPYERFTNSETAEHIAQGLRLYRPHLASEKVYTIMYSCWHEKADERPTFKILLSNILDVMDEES

Take `CC(C)(C)C=C(C#N)C(=O)N1CCC[C@@H](n2c(=O)n(-c3ccc(Oc4ccccc4)cc3)c3c(N)nccc32)C1` [Compound 1, (R)-2-(3-(4-amino-2-oxo-3-(4-phenoxyphenyl)-2,3-dihydro-1H-imidazo[4,5-c]pyridin-1-yl)piperidine-1-carbonyl)-4,4-dimethylpent-2-enenitrile]: on BTK [1], the “% occupany at 1 h” value was 97.036%, the “% occupany at 6 h” value is 82.199% and the “% occupany at 24 h” value was 70.975%. Moreover, on BTK [2], the half-maximal inhibitory concentration (IC50) worked out at 8.2 nM.
As to `N#CC(=CC1CCOCC1)C(=O)N1CCC[C@@H](n2c(=O)n(-c3ccc(Oc4ccccc4)cc3)c3c(N)nccc32)C1` [Compound 2, (R)-2-(3-(4-amino-2-oxo-3-(4-phenoxyphenyl)-2,3-dihydro-1H-imidazo[4,5-c]pyridin-1-yl)piperidine-1-carbonyl)-3-(tetrahydro-2H-pyran-4-yl)acrylonitrile], at BTK [1], the “% occupany at 1 h” value is 93.602%, the “% occupany at 6 h” value amounted to 85.49% and the “% occupany at 24 h” value turned out to be 65.826%. Also, the IC50 at BTK [2] turned out to be 9.1 nM.
With `CC1(C=C(C#N)C(=O)N2CCC[C@@H](n3c(=O)n(-c4ccc(Oc5ccccc5)cc4)c4c(N)nccc43)C2)CCC1` [Compound 3, (R)-2-(3-(4-amino-2-oxo-3-(4-phenoxyphenyl)-2,3-dihydro-1H-imidazo[4,5-c]pyridin-1-yl)piperidine-1-carbonyl)-3-(1-methylcyclobutyl)acrylonitrile], on BTK [1], the “% occupany at 1 h” value worked out at 65.626%, the “% occupany at 6 h” value came to 58.519% and the “% occupany at 24 h” value is 46.073%. Besides, the 50% inhibitory concentration (IC50) on BTK [2] was 21.6 nM.
For the molecule `CC(C)(C=C(C#N)C(=O)N1CCC[C@@H](n2c(=O)n(-c3ccc(Oc4ccccc4)cc3)c3c(N)nccc32)C1)N1CCOCC1` [Compound 4, (R)-2-(3-(4-amino-2-oxo-3-(4-phenoxyphenyl)-2,3-dihydro-1H-imidazo[4,5-c]pyridin-1-yl)piperidine-1-carbonyl)-4-methyl-4-morpholinopent-2-enenitrile], on BTK [1], the “% occupany at 1 h” value was 90.005%, the “% occupany at 6 h” value is listed as 66.344% and the “% occupany at 24 h” value is on record as 18.2%. Further, at BTK [2], the concentration for half-maximal inhibition (IC50) is 7.8 nM.
Consider `CC(C)(C=C(C#N)C(=O)N1CCC[C@@H](n2c(=O)n(-c3ccc(Oc4ccccc4)cc3)c3c(N)nccc32)C1)N1CCN(C2COC2)CC1` [Compound 5, (R)-2-(3-(4-amino-2-oxo-3-(4-phenoxyphenyl)-2,3-dihydro-1H-imidazo[4,5-c]pyridin-1-yl)piperidine-1-carbonyl)-4-methyl-4-(4-(oxetan-3-yl)piperazin-1-yl)pent-2-enenitrile], for which, at BTK [1], the “% occupany at 1 h” value is on record as 93.773%, the “% occupany at 6 h” value is reported as 83.103% and the “% occupany at 24 h” value is 57.488%. Moreover, on BTK [2], the IC50 is 2.5 nM.
For `CC(C)(C=C(C#N)C(=O)N1CCC[C@@H](n2c(=O)n(-c3ccc(Oc4ccccc4)cc3)c3c(N)nccc32)C1)N1CCN(CC(F)(F)F)CC1` [Compound 6, (R)-2-(3-(4-amino-2-oxo-3-(4-phenoxyphenyl)-2,3-dihydro-1H-imidazo[4,5-c]pyridin-1-yl)piperidine-1-carbonyl)-4-methyl-4-(4-(2,2,2-trifluoroethyl)piperazin-1-yl)pent-2-enenitrile] the same measures were 94.404%, 86.64%, 67.505% and 5.9 nM.
The matching figures for `CN1CCC(C(C)(C)C=C(C#N)C(=O)N2CCC[C@@H](n3c(=O)n(-c4ccc(Oc5ccccc5)cc4)c4c(N)nccc43)C2)CC1` [Compound 7, (R)-2-(3-(4-amino-2-oxo-3-(4-phenoxyphenyl)-2,3-dihydro-1H-imidazo[4,5-c]pyridin-1-yl)piperidine-1-carbonyl)-4-methyl-4-(1-methylpiperidin-4-yl)pent-2-enenitrile]: 61.932%, −1.3946%, −12.344% and 1.8 nM.
The matching figures for `N#CC(=CC1CCC1)C(=O)N1CCC[C@@H](n2c(=O)n(-c3ccc(Oc4ccccc4)cc3)c3c(N)nccc32)C1` [Compound 8, (R)-2-(3-(4-amino-2-oxo-3-(4-phenoxyphenyl)-2,3-dihydro-1H-imidazo[4,5-c]pyridin-1-yl)piperidine-1-carbonyl)-3-cyclobutylacrylonitrile]: 93.335%, 89.195%, 80.873% and 23.9 nM.
With `COCCN1CCN(C(C)(C)C=C(C#N)C(=O)N2CCC[C@@H](n3c(=O)n(-c4ccc(Oc5ccccc5)cc4)c4c(N)nccc43)C2)CC1` [Compound 9, (R)-2-(3-(4-amino-2-oxo-3-(4-phenoxyphenyl)-2,3-dihydro-1H-imidazo[4,5-c]pyridin-1-yl)piperidine-1-carbonyl)-4-(4-(2-methoxyethyl)piperazin-1-yl)-4-methylpent-2-enenitrile], at BTK [1], the “% occupany at 1 h” value is given as 93.363%, the “% occupany at 6 h” value is on record as 70.733% and the “% occupany at 24 h” value worked out at 31.4%. In addition, the IC50 at BTK [2] was 7.8 nM.
The matching figures for `COC(=O)N1CCN(C(C)(C)C=C(C#N)C(=O)N2CCC[C@@H](n3c(=O)n(-c4ccc(Oc5ccccc5)cc4)c4c(N)nccc43)C2)CC1` [Compound 10, (R)-methyl 4-(5-(3-(4-amino-2-oxo-3-(4-phenoxyphenyl)-2,3-dihydro-1H-imidazo[4,5-c]pyridin-1-yl)piperidin-1-yl)-4-cyano-2-methyl-5-oxopent-3-en-2-yl)piperazine-1-carboxylate]: 94.392%, 77.985%, 49.145% and 7 nM.
The matching figures for `CC(C)(C)C=C(C#N)C(=O)N1CCC[C@H]1Cn1c(=O)n(-c2ccc(Oc3ccccc3)cc2)c2c(N)nccc21` [Compound 12, (S)-2-(2-((4-amino-2-oxo-3-(4-phenoxyphenyl)-2,3-dihydro-1H-imidazo[4,5-c]pyridin-1-yl)methyl)pyrrolidine-1-carbonyl)-4,4-dimethylpent-2-enenitrile]: 95.906%, 96.44%, 90.847% and 6.6 nM.
Consider `CC(C)(C=C(C#N)C(=O)N1CCC[C@H]1Cn1c(=O)n(-c2ccc(Oc3ccccc3)cc2)c2c(N)nccc21)N1CCN(C2COC2)CC1` [Compound 13, (S)-2-(2-((4-amino-2-oxo-3-(4-phenoxyphenyl)-2,3-dihydro-1H-imidazo[4,5-c]pyridin-1-yl)methyl)pyrrolidine-1-carbonyl)-4-methyl-4-(4-(oxetan-3-yl)piperazin-1-yl)pent-2-enenitrile], for which, at BTK [1], the “% occupany at 1 h” value came out at 91.54%, the “% occupany at 6 h” value is listed as 83.963% and the “% occupany at 24 h” value is 49.152%. The IC50 on BTK [2] came out at 21.1 nM.

What is called IC50 is the concentration needed to halve the response being measured.
